One test addresses T1, PKC epsilon (Homo sapiens, UniProt Q02156).
T1 construct: purchased Invitrogen P2282
T1 sequence (Q02156 1-737): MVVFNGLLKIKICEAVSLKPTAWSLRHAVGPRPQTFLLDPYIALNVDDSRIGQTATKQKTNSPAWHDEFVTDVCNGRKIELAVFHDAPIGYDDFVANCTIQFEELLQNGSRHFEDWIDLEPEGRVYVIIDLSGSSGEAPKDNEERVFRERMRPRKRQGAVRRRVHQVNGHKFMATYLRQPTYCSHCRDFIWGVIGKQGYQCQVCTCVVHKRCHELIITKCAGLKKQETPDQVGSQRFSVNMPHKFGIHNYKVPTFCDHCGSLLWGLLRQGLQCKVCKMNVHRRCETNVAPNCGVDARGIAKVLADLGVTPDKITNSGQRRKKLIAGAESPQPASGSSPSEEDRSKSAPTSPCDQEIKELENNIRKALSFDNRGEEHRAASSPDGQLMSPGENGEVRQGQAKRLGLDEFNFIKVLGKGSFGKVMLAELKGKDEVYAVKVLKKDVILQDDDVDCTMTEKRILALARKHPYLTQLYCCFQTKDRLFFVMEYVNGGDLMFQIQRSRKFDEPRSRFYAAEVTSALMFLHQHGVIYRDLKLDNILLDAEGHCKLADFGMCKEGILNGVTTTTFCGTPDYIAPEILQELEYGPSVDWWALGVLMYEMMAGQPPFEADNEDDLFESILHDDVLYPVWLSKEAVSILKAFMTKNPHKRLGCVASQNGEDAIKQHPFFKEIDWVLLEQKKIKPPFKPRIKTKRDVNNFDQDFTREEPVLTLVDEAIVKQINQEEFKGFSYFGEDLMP
Put plainly: Biochemical assay for PKC epsilon (fluorescence polarization, Protein Kinase C Assay Kit, Red). Conditions: read-out: IC50 μM PKCε. Summed up:
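Read-out was fluorescence-polarization competition between phosphorylated substrate and a rhodamine PKC tracer for an anti-phosphoserine antibody, added with EDTA stop after an 80 min room-temperature kinase reaction with ATP and protein substrate (Mg2+/Ca2+ buffer). Enzyme (10 ng/ml final) was preincubated with compound for 30 min.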
On the technique in general: In fluorescence polarisation assays a small probe gives low polarisation when free and higher when bound to something large.

The target of another test is T2, human ROCKα/ROCKII mix (Homo sapiens, UniProt O75116).
T2 construct: purchased Upstate Biotechnology 14-451
Put plainly: Biochemical assay for ROCK (fluorescence polarization, ROCK IMAP Kit).

SMILES strings stand for the structures.

T2 sequence (O75116 11-552 limits assumed): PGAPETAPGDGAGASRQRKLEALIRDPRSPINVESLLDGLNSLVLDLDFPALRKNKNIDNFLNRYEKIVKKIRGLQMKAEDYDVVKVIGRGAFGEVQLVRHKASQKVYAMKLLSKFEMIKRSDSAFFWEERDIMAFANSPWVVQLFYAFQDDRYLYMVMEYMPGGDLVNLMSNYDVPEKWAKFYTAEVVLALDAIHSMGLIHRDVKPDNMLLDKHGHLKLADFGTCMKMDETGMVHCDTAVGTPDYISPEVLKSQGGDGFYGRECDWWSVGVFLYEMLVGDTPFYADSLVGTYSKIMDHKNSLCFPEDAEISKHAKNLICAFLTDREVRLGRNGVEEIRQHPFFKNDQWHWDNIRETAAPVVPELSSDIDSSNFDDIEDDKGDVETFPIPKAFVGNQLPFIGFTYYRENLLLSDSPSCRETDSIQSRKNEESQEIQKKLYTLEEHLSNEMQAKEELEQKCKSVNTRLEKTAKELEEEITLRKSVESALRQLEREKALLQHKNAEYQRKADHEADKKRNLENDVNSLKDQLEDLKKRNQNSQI

Turning to `NC(c1ccc(C(=O)Nc2ccncc2)cc1)C1CCCN1C(=O)Cc1ccc(F)cc1` (stereo not drawn) [Compound 572, 4-(Amino-{1-[2-(4-fluoro-phenyl)-acetyl]-pyrrolidin-2-yl}-methyl)-N-pyridin-4-yl-benzamide], the IC50 on PKC epsilon was in the range of 5 to 50 µM; against human ROCKα/ROCKII mix it was 0.5 to 5 µM.

Consider `CC(C)(C(=O)N1CCCC1C(N)c1ccc(C(=O)Nc2ccncc2)cc1)c1ccc(F)cc1` (stereo not drawn) [Compound 573, 4-(Amino-{1-[2-(4-fluoro-phenyl)-2-methyl-propionyl]-pyrrolidin-2-yl}-methyl)-N-pyridin-4-yl-benzamide], for which the IC50 at PKC epsilon and against human ROCKα/ROCKII mix was 0.5 to 5 µM each time.

In the case of `NC(c1ccc(C(=O)Nc2ccncc2)cc1)C1CCCN1C(=O)C1(c2ccc(F)cc2)CC1` (stereo not drawn) [Compound 574, 4-(Amino-{1-[1-(4-fluoro-phenyl)-cyclopropanecarbonyl]-pyrrolidin-2-yl}-methyl)-N-pyridin-4-yl-benzamide], the 50% inhibitory concentration (IC50) on PKC epsilon and against human ROCKα/ROCKII mix was 0.5 to 5 µM throughout.

Regarding `NC(c1ccc(C(=O)Nc2ccncc2)cc1)C1CCCN1C(=O)C1(c2ccc(F)cc2)CCC1` (stereo not drawn) [Compound 575, 4-(Amino-{1-[1-(4-fluoro-phenyl)-cyclobutanecarbonyl]-pyrrolidin-2-yl}-methyl)-N-pyridin-4-yl-benzamide], the IC50 at PKC epsilon and at human ROCKα/ROCKII mix was 0.5 to 5 µM in each case.

For `NC(c1ccc(C(=O)Nc2ccncc2)cc1)C1CCCN1C(=O)C1(c2ccc(F)cc2)CCCC1` (stereo not drawn) [Compound 576, 4-(Amino-{1-[1-(4-fluoro-phenyl)-cyclopentanecarbonyl]-pyrrolidin-2-yl}-methyl)-N-pyridin-4-yl-benzamide], the IC50 on PKC epsilon and on human ROCKα/ROCKII mix was 0.5 to 5 µM each time.

As to `NC(c1ccc(C(=O)Nc2ccncc2)cc1)C1CCCN1C(=O)Cc1cccc(F)c1F` (stereo not drawn) [Compound 578, 4-(Amino-{1-[2-(2,3-difluoro-phenyl)-acetyl]-pyrrolidin-2-yl}-methyl)-N-pyridin-4-yl-benzamide], the IC50 at PKC epsilon and against human ROCKα/ROCKII mix was 0.5 to 5 µM throughout.

Take `NC(c1ccc(C(=O)Nc2ccncc2)cc1)C1CCCN1C(=O)Cc1cc(F)ccc1F` (stereo not drawn) [Compound 579, 4-(Amino-{1-[2-(2,5-difluoro-phenyl)-acetyl]-pyrrolidin-2-yl}-methyl)-N-pyridin-4-yl-benzamide]: the IC50 at PKC epsilon is 5 to 50 µM; against human ROCKα/ROCKII mix, 0.5 to 5 µM.

With `NC(c1ccc(C(=O)Nc2ccncc2)cc1)C1CCCN1C(=O)Cc1ccc(F)cc1F` (stereo not drawn) [Compound 580, 4-(Amino-{1-[2-(2,4-difluoro-phenyl)-acetyl]-pyrrolidin-2-yl}-methyl)-N-pyridin-4-yl-benzamide], the IC50 on PKC epsilon is 0.5 to 5 µM; against human ROCKα/ROCKII mix it was 0.05 to 0.5 µM.

Consider `NC(c1ccc(C(=O)Nc2ccncc2)cc1)C1CCCN1C(=O)C1(c2ccc(F)cc2F)CC1` (stereo not drawn) [Compound 582, 4-(Amino-{1-[1-(2,4-difluoro-phenyl)-cyclopropanecarbonyl]-pyrrolidin-2-yl}-methyl)-N-pyridin-4-yl-benzamide], for which the IC50 at PKC epsilon and against human ROCKα/ROCKII mix was 0.5 to 5 µM in each case.

Turning to `NC(c1ccc(C(=O)Nc2ccncc2)cc1)C1CCCN1C(=O)Cc1cc(F)cc(F)c1` (stereo not drawn) [Compound 583, 4-(Amino-{1-[2-(3,5-difluoro-phenyl)-acetyl]-pyrrolidin-2-yl}-methyl)-N-pyridin-4-yl-benzamide], the IC50 was in the range of 5 to 50 µM at PKC epsilon and 0.5 to 5 µM against human ROCKα/ROCKII mix.

On to `NC(c1ccc(C(=O)Nc2ccncc2)cc1)C1CCCN1C(=O)Cc1c(F)cccc1F` (stereo not drawn) [Compound 584, 4-(Amino-{1-[2-(2,6-difluoro-phenyl)-acetyl]-pyrrolidin-2-yl}-methyl)-N-pyridin-4-yl-benzamide], for which the IC50 was 5 to 50 µM at PKC epsilon and 0.5 to 5 µM against human ROCKα/ROCKII mix.

Consider `NC(c1ccc(C(=O)Nc2ccncc2)cc1)C1CCCN1C(=O)C1(c2ccc(F)c(F)c2)CC1` (stereo not drawn) [Compound 587, 4-(Amino-{1-[1-(3,4-difluoro-phenyl)-cyclopropanecarbonyl]-pyrrolidin-2-yl}-methyl)-N-pyridin-4-yl-benzamide], for which the IC50 on PKC epsilon and against human ROCKα/ROCKII mix was 0.5 to 5 µM throughout.

One may read the IC50 as the concentration that gives 50% inhibition.

The values above are taken from US20100168102A9, “Amide Derivatives as Kinase Inhibitors” (Devgen NV, priority 2005, published 2010).
